≈ marks a conversion by molar mass, not a printed value.
Tested on: Bacillus anthracis
Experiment: microbe, parasite or virus in culture
Format: functional
Details: dANR

For `COc1ccc(Cn2ccc(O)cc2=O)cc1`, which MIC is on record?
The MIC was > 80 µg/mL.

Which MIC does the source give for `O=c1cc(O)ccn1Cc1ccccc1` here?
The MIC was > 80 µg/mL.

For `CC(=O)Nc1ccc(Cn2ccc(OCc3ccccc3)cc2=O)c(Cl)c1`, which MIC is on record?
Its MIC is > 80 µg/mL.

`C#CCn1ccc(OCc2ccccc2)cc1=O` was tested. Which MIC did it give?
Its MIC is > 100 µg/mL.

For `O=c1[nH]c(OCc2ccccc2)ccc1Cc1ccccc1`, which MIC is on record?
The MIC was > 100 µg/mL.

Which MIC does the source give for `COc1ccc(Oc2ccccc2Cl)c(=O)[nH]1` here?
Its MIC is > 100 µg/mL.

Which MIC does the source give for `[O-][n+]1cc(Cl)ccc1Oc1ccc(Cl)cc1Cl` here?
The MIC was > 100 µg/mL.

For `O=c1cc(OCc2ccccc2)ccn1Cc1ccccc1Cl`, which MIC is on record?
Its MIC is 16 µg/mL (≈ 49.1 µM).

How did the MIC turn out when `COc1ccc(Cn2ccc(OCCCn3c4ccccc4c4ccccc43)cc2=O)cc1` was run?
Its MIC is > 80 µg/mL.

How did the MIC turn out when `O=c1cc(OCc2cccc3ccccc23)ccn1Cc1ccccc1Cl` was run?
Its MIC is > 80 µg/mL.

With `O=c1cc(OCCCn2c3ccccc3c3ccccc32)ccn1Cc1ccccc1` as the molecule, how does the MIC read?
The MIC was > 80 µg/mL.

For `COc1ccc(Oc2ccc(Cl)cc2Cl)c(=O)[nH]1`, which MIC is on record?
Its MIC is > 100 µg/mL.

For `Nc1ccc(Cn2ccc(OCc3ccccc3)cc2=O)c(Cl)c1`, which MIC is on record?
The MIC was > 80 µg/mL.

How did the MIC turn out when `O=c1cc(OCc2ccccc2)ccn1Cc1ccc([N+](=O)[O-])cc1Cl` was run?
The MIC was > 80 µg/mL.

For `O=C(O)c1ccc(Cn2ccc(OCc3ccccc3)cc2=O)c(Cl)c1`, which MIC is on record?
The MIC was > 80 µg/mL.

Which MIC does the source give for `NC(=O)c1ccc(Cn2ccc(OCc3ccccc3)cc2=O)c(Cl)c1` here?
Its MIC is > 80 µg/mL.

How did the MIC turn out when `O=c1cc(OCc2ccc3ccccc3c2)ccn1Cc1ccccc1Cl` was run?
The MIC was > 80 µg/mL.

`O=c1cc(OCCCn2nnc3ccccc32)ccn1Cc1ccccc1Cl` was tested. Which MIC did it give?
The MIC was > 80 µg/mL.

With `O=c1cc(OCCCn2ccnc2)ccn1Cc1ccccc1Cl` as the molecule, how does the MIC read?
Its MIC is > 80 µg/mL.

How did the MIC turn out when `O=c1cc(OCCCn2ccc3ccccc32)ccn1Cc1ccccc1Cl` was run?
Its MIC is > 80 µg/mL.

Which MIC does the source give for `O=c1cc(O)ccn1Cc1ccc(O)cc1` here?
The MIC was > 80 µg/mL.

With `O=c1cc(OCc2ccccc2)ccn1Cc1ccccc1` as the molecule, how does the MIC read?
The MIC was > 80 µg/mL.

With `N#Cc1ccc(COc2ccn(Cc3ccccc3Cl)c(=O)c2)cc1` as the molecule, how does the MIC read?
Its MIC is > 80 µg/mL.

Which MIC does the source give for `COc1ccc(Oc2ccccc2Cl)c[n+]1[O-]` here?
The MIC was > 100 µg/mL.

For `CCOC(=O)c1cc(Cn2ccc(OCc3ccccc3)cc2=O)on1`, which MIC is on record?
Its MIC is > 100 µg/mL.

`N#Cc1ccc(Cn2ccc(OCc3ccccc3)cc2=O)c(Cl)c1` was tested. Which MIC did it give?
The MIC was > 80 µg/mL.

Which MIC does the source give for `O=c1cc(OCCCn2c3ccccc3c3ccccc32)ccn1Cc1ccccc1Cl` here?
Its MIC is > 80 µg/mL.

`Oc1cc(Cl)ccc1Oc1ccc(Cl)cc1Cl` [TRICLOSAN] was tested. Which MIC did it give?
The MIC was 3.1 µg/mL (≈ 10.7 µM).
